# Source: US20240018129A1, “COMPOUNDS AS PU. 1 INHIBITORS” (PEKING UNIVERSITY, priority 2020, published 2024)
# System: bleomycin-induced skin fibrosis
# Assay: bleomycin-induced skin fibrosis, preventive and therapeutic models
# Type: in vivo, mouse
# Experimental: Methods: To evaluate the preventive and therapeutic effects of compound I-1 on skin fibrosis, bleomycin was used to establish two animal models of skin fibrosis with different drug intervention (6-8 weeks, C57BL/6, male). Skin fibrosis was induced by local injection of bleomycin (0.5 mg/mL, 0.1 ml/mouse) in a skin defined area (˜1 cm^2), where the hair was removed in advance, at the upper back every other day. Subcutaneous saline injections served as controls. (I) Preventive model of bleomycin-induced skin fibrosis: Compound I-1, positive control DB1976, or vehicle (saline) were injected i.p. simultaneously with bleomycin for 4 weeks (FIG. 3a). (II) Therapeutic model of bleomycin-induced skin fibrosis: Mice were pre-charged with bleomycin for 3 weeks to induce skin fibrosis, then treated with compound I-1, positive control DB1976, or vehicle (saline) for another 3 weeks, total time is 6 weeks after the first bleomycin treatment (FIG. 30. After the last day of treatment of both models, mice were fasted overnight and euthanized. Part of the skin was fixed with paraformaldehyde after fully flat on a foil, embedded with paraffin, and then sliced for H&E, Sirius red and Masson staining to check pathological features. The epidermal thickness of each sample was calculated quantitatively with image J. Another part of skin was collected and stored at −80° C. after liquid nitrogen quick-freezing, RNA isolation (Code.R6934, OMEGA, USA), first cDNA reverse (Code.AT341, TransGen, China), SYBR mix (Code.AQ601, TransGen, China) for Q-PCR (LightCycler® 96, Roche) to verify several fibrosis-related genes mRNA level, such as, Col1a1 and Col1a2.
# [1] = preventive model, 5mpk i.p., 4 weeks
compound,measurement,setting,value
"N=C(N)c1ccc2nc(-c3ccc(NC(=O)[C@@H]4CCCN4C(=O)[C@@H]4CCCN4C(=O)c4ccc(-c5nc6ccc(C(=N)N)cc6[nH]5)cc4)cc3)[nH]c2c1 [Compound I-1, (S)-1-((4-(6-carbamimidoyl-1H-benzo[d]imidazol-2-yl)benzoyl)-L-prolyl)-N-(4-(6-carbamimidoyl-1H-benzo[d]imidazol-2-yl)phenyl)pyrrolidine-2-carboxamide]",skin fibrosis progress,"preventive model, 5mpk i.p. simultaneously with bleomycin for 4 weeks, vs bleomycin/vehicle",significantly prevented
same,collagen deposition,[1],reducing
same,epidermal thickness,[1],reducing
same,mRNA level of Col1a1 and Col1a2,"preventive model, 5mpk i.p., 4 weeks, skin",decreasing
same,bleomycin-induced skin fibrosis,"therapeutic model, 3 weeks bleomycin then 3 weeks treatment, 5mpk",significantly alleviated and reversed
